In ChEMBL document CHEMBL5033996, “Design, Synthesis, and Bioactivity Evaluation of Dual-Target Inhibitors of Tubulin and Src Kinase Guided by Crystal Structure” (J Med Chem, 2021):
pIC50, pKd: −log10 of the molar value. Each block holds one compound with its values, some of them ahead of it. The source made the active and inactive calls. No cut-off for these calls is given here.

How the values were obtained:
SK-OV-3 [1] = assay: Antiproliferative activity against human SK-OV-3 cells assessed as inhibition of cell proliferation measured after 72 hrs by MTT assay; format: functional, cell-based; settings: SK-OV-3, 72 h
Ramos = assay: Antiproliferative activity against human Ramos cells assessed as inhibition of cell proliferation measured after 72 hrs by MTT assay; format: functional, cell-based
K562 = assay: Antiproliferative activity against human K562 cells assessed as inhibition of cell proliferation measured after 72 hrs by MTT assay; format: functional, cell-based; settings: K562, 72 h
SK-OV-3 [2] = assay: Induction of cell cycle arrest in human SK-OV-3 cells assessed as accumulation of cells at G0/G1 phase at 1 nM incubated for 24 hrs by PI staining based flow cytometry analysis (Rvb= 49.60%); format: functional
[3] = Antitumor activity against mouse C26 cells xenografted in BALB/c mouse assessed as tumor growth inhibition at 10 mg/kg, po measured every 2 days for 10 days by vernier caliper analysis relative to control; format: functional; settings: 240 h, time 10 day, read-out: TGI
[4] = Toxicity in mouse xenografted with human SK-OV-3 cells assessed as effect on body weight at 10 mg/kg, po administered for 30 days; format: organism-based; settings: in vivo, 720 h, time 30 day
[5] = Toxicity in C57 mouse at 40 mg/kg, po administered twice daily; format: organism-based; settings: in vivo
SK-OV-3 [6] = assay: Induction of mitotic block in human SK-OV-3 cells at 10 to 30 nM in presence of colchicine measured immediately by flow cytometry analysis; format: functional, cell-based; settings: dose 10-30 nM
SK-OV-3 [7] = assay: Induction of cell cycle arrest in human SK-OV-3 cells assessed as accumulation od cells at G2/M phase at 5 nM incubated for 24 hrs by PI staining based flow cytometry analysis (reference value: 28.94%); format: functional
[8] = Oral bioavailability in Sprague-Dawley rat at 5 mg/kg measured up to 24 hrs by LC/MS/MS analysis; format: ADME, organism-based; settings: in vivo
[9] = AUC (0 to t) in Sprague-Dawley rat at 5 mg/kg, po measured up to 24 hrs by LC/MS/MS analysis; format: ADME, organism-based; parameters: route oral, dose 5 mg/kg, time <=24; settings: in vivo
[10] = Half life in Sprague-Dawley rat at 5 mg/kg, po measured up to 24 hrs by LC/MS/MS analysis; format: ADME, organism-based; settings: in vivo
Tubulin = assay: Binding affinity to tubulin (unknown origin) assessed as dissociation constant by tryptophan based binding assay; format: protein-complex assay, Homo sapiens
[11] = Tmax in Sprague-Dawley rat at 5 mg/kg, po measured up to 24 hrs by LC/MS/MS analysis; format: ADME, organism-based; settings: in vivo
[12] = Antitumor activity against human SK-OV-3 cells xenografted in nude mouse assessed as tumor growth inhibition at 5 mg/kg, po measured every 3 days for 1 month by vernier caliper analysis relative to control; format: functional; settings: SK-OV-3, po, 730 h, time 1 months, read-out: TGI
SK-OV-3 [13] = assay: Induction of cell cycle arrest in human SK-OV-3 cells assessed as accumulation of cells at G2/M phase at 1 nM incubated for 24 hrs by PI staining based flow cytometry analysis (reference value: 28.94%); format: functional
[14] = Half life in human liver microsomes; format: ADME, Microsome
[15] = biological target: Proto-oncogene tyrosine-protein kinase Src (Homo sapiens) (UniProt P12931); assay: Inhibition of Src kinase phosphorylation at Tyr416/419 residue in human SK-OV-3 cells incubated for 24 hrs by Western blot analysis; format: cell-based
Sequence of Proto-oncogene tyrosine-protein kinase Src (Homo sapiens) (P12931 2-536 limits assumed): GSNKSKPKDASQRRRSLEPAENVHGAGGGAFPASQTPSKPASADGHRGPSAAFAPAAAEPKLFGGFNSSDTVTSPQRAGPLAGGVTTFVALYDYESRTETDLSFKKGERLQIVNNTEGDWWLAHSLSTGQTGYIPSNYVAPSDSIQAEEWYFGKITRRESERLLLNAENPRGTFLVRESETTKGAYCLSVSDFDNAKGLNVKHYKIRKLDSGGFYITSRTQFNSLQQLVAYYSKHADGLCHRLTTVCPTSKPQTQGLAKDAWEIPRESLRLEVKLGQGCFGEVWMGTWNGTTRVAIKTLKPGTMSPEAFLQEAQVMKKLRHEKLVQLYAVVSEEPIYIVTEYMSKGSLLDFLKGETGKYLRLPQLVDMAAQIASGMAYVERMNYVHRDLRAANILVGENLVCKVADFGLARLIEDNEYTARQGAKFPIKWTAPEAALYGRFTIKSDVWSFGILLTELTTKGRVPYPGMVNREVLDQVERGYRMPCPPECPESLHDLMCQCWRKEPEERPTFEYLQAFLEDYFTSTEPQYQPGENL

SK-OV-3 [16] = assay: Induction of cell cycle arrest in human SK-OV-3 cells assessed as accumulation of cells at S phase at 10 nM incubated for 24 hrs by PI staining based flow cytometry analysis (reference value: 21.4 %); format: functional
[17] = biological target: Focal adhesion kinase 1 (Homo sapiens) (UniProt Q05397); assay: Inhibition of FAK phosphorylation at […] residue in human SK-OV-3 cells incubated for 24 hrs by Western blot analysis; format: cell-based
Sequence of Focal adhesion kinase 1 (Homo sapiens) (Q05397 2-1052 limits assumed): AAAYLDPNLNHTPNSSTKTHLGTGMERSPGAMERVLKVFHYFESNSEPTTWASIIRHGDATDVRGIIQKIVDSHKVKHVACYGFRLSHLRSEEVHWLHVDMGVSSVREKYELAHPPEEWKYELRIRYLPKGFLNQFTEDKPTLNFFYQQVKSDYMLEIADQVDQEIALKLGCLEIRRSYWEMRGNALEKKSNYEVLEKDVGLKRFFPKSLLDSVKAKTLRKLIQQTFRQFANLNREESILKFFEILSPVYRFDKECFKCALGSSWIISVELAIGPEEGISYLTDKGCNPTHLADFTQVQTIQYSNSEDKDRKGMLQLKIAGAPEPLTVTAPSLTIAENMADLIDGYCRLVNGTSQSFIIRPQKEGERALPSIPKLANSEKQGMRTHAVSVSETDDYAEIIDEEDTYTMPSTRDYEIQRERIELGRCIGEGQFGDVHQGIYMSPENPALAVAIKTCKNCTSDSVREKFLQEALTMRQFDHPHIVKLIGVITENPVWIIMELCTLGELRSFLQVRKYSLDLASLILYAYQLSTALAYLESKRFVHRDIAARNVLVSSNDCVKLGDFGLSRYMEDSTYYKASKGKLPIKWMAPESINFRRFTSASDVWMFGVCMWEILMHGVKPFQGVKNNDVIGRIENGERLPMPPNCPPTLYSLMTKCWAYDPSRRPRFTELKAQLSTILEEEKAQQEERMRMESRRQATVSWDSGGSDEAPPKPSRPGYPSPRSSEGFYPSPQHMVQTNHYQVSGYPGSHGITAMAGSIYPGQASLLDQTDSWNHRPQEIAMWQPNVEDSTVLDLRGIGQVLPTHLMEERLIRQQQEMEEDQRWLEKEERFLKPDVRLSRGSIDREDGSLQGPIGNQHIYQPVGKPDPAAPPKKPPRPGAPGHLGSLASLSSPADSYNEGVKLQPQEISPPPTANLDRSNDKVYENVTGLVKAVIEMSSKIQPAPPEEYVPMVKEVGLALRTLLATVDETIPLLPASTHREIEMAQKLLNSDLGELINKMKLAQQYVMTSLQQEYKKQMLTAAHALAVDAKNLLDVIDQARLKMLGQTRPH

[18] = Toxicity in mouse xenografted with human SK-OV-3 cells assessed as effect on body weight at 5 mg/kg, po administered for 30 days; format: organism-based; settings: in vivo, 720 h, time 30 day
[19] = Intrinsic clearance in human liver microsomes; format: ADME, Microsome
SK-OV-3 [20] = assay: Induction of cell cycle arrest in human SK-OV-3 cells assessed as accumulation of cells at G2/M phase at 10 nM incubated for 24 hrs by PI staining based flow cytometry analysis (reference value: 28.94%); format: functional
SK-OV-3 [21] = assay: Induction of mitotic block in human SK-OV-3 cells at 300 nM measured after 10 hrs by flow cytometry analysis; format: functional, cell-based
SK-OV-3 [22] = assay: Induction of cell cycle arrest in human SK-OV-3 cells assessed as accumulation of cells at S phase at 1 nM incubated for 24 hrs by PI staining based flow cytometry analysis (reference value: 21.4 %); format: functional
SK-OV-3 [23] = assay: Induction of cell cycle arrest in human SK-OV-3 cells assessed as accumulation of cells at S phase at 5 nM incubated for 24 hrs by PI staining based flow cytometry analysis (reference value: 21.4 %); format: functional
[24] = Antitumor activity against human SK-OV-3 cells xenografted in nude mouse assessed as tumor growth inhibition at 10 mg/kg, po measured every 3 days for 1 month by vernier caliper analysis relative to control; format: functional; settings: SK-OV-3, po, 730 h, time 1 months, read-out: TGI
SK-OV-3 [25] = assay: Induction of cell cycle arrest in human SK-OV-3 cells assessed as accumulation of cells at G0/G1 phase at 10 nM incubated for 24 hrs by PI staining based flow cytometry analysis (reference value: 49.60 %); format: functional
[26] = Clearance in Sprague-Dawley rat at 5 mg/kg, po measured up to 24 hrs by LC/MS/MS analysis; format: ADME, organism-based; settings: in vivo
[27] = Cmax in Sprague-Dawley rat at 5 mg/kg, po measured up to 24 hrs by LC/MS/MS analysis; format: ADME, organism-based; parameters: route oral, dose 5 mg/kg, time <=24; settings: in vivo
Tubulin (Homo sapiens) = Tubulin (Homo sapiens) (UniProt P68371+Q9H4B7+P0DPH7+P68366+Q13509+Q71U36+P04350+Q3ZCM7+P07437+P68363+Q9BQE3+Q6PEY2+Q13885+Q9BVA1+Q9BUF5); assay: Inhibition of tubulin polymerization in human SK-OV-3 cells at 5 uM incubated for 16 hrs by fluorescence microscopic analysis; format: cell-based
SK-OV-3 [28] = assay: Induction of cell cycle arrest in human SK-OV-3 cells assessed as accumulation of cells at G0/G1 phase at 5 nM incubated for 24 hrs by PI staining based flow cytometry analysis (reference value: 49.60 %); format: functional

Structure (SMILES): CC1CCCN(CCOc2ccc(-c3ccc(CC(=O)NCc4ccccc4)nc3)cc2)C1 (stereo not drawn)
pIC50 (SK-OV-3 [1]): 7.24
pIC50 (Ramos): < 7.00
pIC50 (K562): < 7.00

Structure (SMILES): CC(C)(C)N1CCN(CCOc2ccc(-c3ccc(CC(=O)NCc4ccccc4)nc3)cc2)CC1
pIC50 (SK-OV-3 [1]): 6.92
pIC50 (Ramos): 7.36
pIC50 (K562): < 7.00

Structure (SMILES): CCN1CCN(CCOc2ccc(-c3ccc(CC(=O)NCc4ccccc4)nc3)cc2)CC1
pIC50 (SK-OV-3 [1]): 7.84
pIC50 (Ramos): 7.44
pIC50 (K562): 7.40

Structure (SMILES): O=C(Cc1ccc(-c2ccc(OCCCCN3CC4CCC(C3)O4)cc2)cn1)NCc1ccccc1
pIC50 (SK-OV-3 [1]): 7.66
pIC50 (Ramos): 7.76
pIC50 (K562): 7.39

Structure (SMILES): O=C(Cc1ccc(-c2ccc(OCCN3CC4CCCCC4C3)cc2)cn1)NCc1ccccc1 (stereo not drawn)
pIC50 (SK-OV-3 [1]): 7.13
pIC50 (Ramos): 7.71
pIC50 (K562): 7.42

Structure (SMILES): O=C(Cc1ccc(-c2ccc(OCCN3CCN(C(=O)[C@H]4C[C@@H]4F)CC3)cc2)cn1)NCc1ccccc1
pIC50 (SK-OV-3 [1]): 7.90
pIC50 (Ramos): 7.59
pIC50 (K562): 7.53

Structure (SMILES): O=C(Cc1ccc(-c2ccc(OCCCN3C[C@@H]4C[C@H]3CO4)cc2)cn1)NCc1ccccc1
pIC50 (SK-OV-3 [1]): 7.10
pIC50 (Ramos): < 7.00
pIC50 (K562): < 7.00

Stronger by pIC50 (SK-OV-3 [1]), values ahead:

pIC50 (SK-OV-3 [1]): 8.09
pIC50 (Ramos): 7.80
pIC50 (K562): 7.89
Structure (SMILES): COC1CCN(CCOc2ccc(-c3ccc(CC(=O)NCc4ccccc4)nc3)cc2)CC1

pIC50 (SK-OV-3 [1]): 7.98
pIC50 (Ramos): 7.36
pIC50 (K562): 7.53
Structure (SMILES): O=C(Cc1ccc(-c2ccc(OCCCCN3CCOCC3)cc2)cn1)NCc1ccccc1

pIC50 (SK-OV-3 [1]): 9.21
bioavailability [8]: 24.3%
AUC(0-t) at 24 h [9]: 1050 ng·h/mL
half-life [10]: 231 min
pKd (Tubulin): 6.21
Tmax [11]: 19.8 min
half-life [14]: 27.8 min
inhibition [15]: Dose-Dependent Effect
inhibition [17]: Dose-Dependent Effect
CLH [19]: 49.8 mL·min/g
pIC50 (Ramos): 8.85
pIC50 (K562): 9.00
CL/F [26]: 80.2 mL/min/kg
Cmax [27]: 398 ng/mL
inhibition (Tubulin (Homo sapiens)): Active
Structure (SMILES): O=C(Cc1ccc(-c2ccc(OCCN3CCN(C(=O)CC4CC4)CC3)cc2)cn1)NCc1ccccc1
Activity (SK-OV-3 [2]): 45.93%
inhibition in vivo at 10 mg/kg [3]: 71%
Activity [4]: Non-Toxic
Activity [5]: Non-Toxic
Activity (SK-OV-3 [6]): Active
Activity (SK-OV-3 [7]): 39.47%
inhibition in vivo at 5 mg/kg [12]: 52%
Activity (SK-OV-3 [13]): 32.11%
Activity (SK-OV-3 [16]): 15.86%
Activity [18]: Non-Toxic
Activity (SK-OV-3 [20]): 72.04%
Activity (SK-OV-3 [21]): Active
Activity (SK-OV-3 [22]): 21.96%
Activity (SK-OV-3 [23]): 21.42%
inhibition in vivo at 10 mg/kg [24]: 70%
Activity (SK-OV-3 [25]): 12.1%
Activity (SK-OV-3 [28]): 39.12%

pIC50 (SK-OV-3 [1]): 8.17
pIC50 (Ramos): 7.62
pIC50 (K562): 7.78
Structure (SMILES): O=C(Cc1ccc(-c2ccc(OCCN3CCC4(CC3)OCCO4)cc2)cn1)NCc1ccccc1

pIC50 (SK-OV-3 [1]): 8.04
pIC50 (Ramos): 7.71
pIC50 (K562): 7.53
Structure (SMILES): O=C(Cc1ccc(-c2ccc(OCCN3CC4CC4C3)cc2)cn1)NCc1ccccc1 (stereo not drawn)

pIC50 (SK-OV-3 [1]): 8.49
pIC50 (Ramos): 8.51
pIC50 (K562): 8.21
Structure (SMILES): O=C(Cc1ccc(-c2ccc(OCCN3CC4CCC(C3)O4)cc2)cn1)NCc1ccccc1
